{"source": "patent US7772275B2", "about": "“Compositions and method for treating affective, painful or allergic disorders” (Gideon Pharmaceuticals, Inc., priority 2002, dated 2010)", "key": {"[1]": {"assay": "Applicant's evaluation of sedation with the cis isomer at therapeutically effective dosages", "assay_type": "in vivo", "source_text": "In an attempt to discover a compound that might have similar effectiveness to doxepin hydrochloride U.S.P. but less associated sedation, the applicant has evaluated the cis isomer, which as mentioned above constitutes less than 18.1 % of doxepin hydrochloride. […] The invention includes pharmaceutical compositions of cis doxepin suitable for administration to patients with affective disorders, painful disorders, or allergic disorders."}, "[2]": {"system": "pruritic skin lesions of atopic dermatitis", "assay": "Cream applied to pruritic skin lesions by patients with atopic dermatitis", "assay_type": "in vivo, human", "conditions": "cream 1.0% by weight, applied two to four times daily", "source_text": "A cream containing cis doxepin isomer 1.0% by weight is applied two to four times daily to pruritic skin lesions by patients with atopic dermatitis."}, "[3]": {"conditions": "in animals; 'purportedly'; cited from earlier work"}}, "data": [{"smiles": "CN(C)CC/C=C1/c2ccccc2COc2ccccc21.Cl", "note": "[cis doxepin hydrochloride]", "values": [{"measurement": "sedation compared with doxepin hydrochloride U.S.P.", "setting": "[1]", "value": "produces less sedation"}, {"measurement": "relief of itching", "setting": "[2]", "value": "provides for relief of itching"}, {"measurement": "resolution of the skin lesions", "setting": "[2]", "value": "more prompt resolution of the skin lesions"}, {"measurement": "sedation compared with prior art doxepin creams in which the trans isomer is predominant", "setting": "[2]", "value": "without producing the incidence or severity of sedation"}, {"measurement": "potency compared with doxepin hydrochloride U.S.P.", "setting": "[3]", "value": "more potent"}]}]}
